Test in all cases: inhibition of tumour cell growth, NCI panel, 48 h
Assay [1] deals with NCI/ADR-RES ovarian.
Assay [2] has as its system SN12C renal.
For assay [3], the system named is MOLT-4 leukemia.
Assay [4] concerns NCI-H460 lung.
In assay [5] the test system is MALME-3M melanoma.
The test system of assay [6] is PC-3 prostate.
The test system of assay [7] is A549 NSCLC.
The subject of assay [8] is SW-620 colon.
Assay [9] relates to SF-295 CNS.
The test system of assay [10] is HS 578T breast.

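48-hour exposure; five concentrations; linearly interpolated endpoints. GI50 is the concentration that inhibits growth by half. Definition used: TGI = concentration required for complete inhibition of growth.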 A value given as a limit tells only on which side of the number the result lay.

These results are taken from PubChem BioAssay (NCI).

Take `Nc1nc(-c2ccc(Cl)cc2)cc(-c2ccc(Cl)cc2)c1-c1nc2ccccc2o1`: the GI50 is 14.5 µM in [1]; 12.4 µM in [2]; 12.1 µM in assay [3]; 16.8 µM in [4]; 14.4 µM in [5]; 13.2 µM in assay [6]. Further, the GI50 in [7] was 15.5 µM; in assay [8], 17.5 µM; in assay [9] it was 21.7 µM; in assay [10], 23.5 µM. Further, the TGI in assay [1] was 30.9 µM; in assay [2], 26.1 µM; in assay [3], 27.4 µM; in [4], 39.6 µM; in assay [5], 29.9 µM; in assay [6] it was 27.1 µM. Further, the TGI in assay [7] came out at 40.7 µM; in assay [8], 33.3 µM; in assay [9] it was 40.3 µM; in [10] it was 53.1 µM.

On to `O=C1/C(=C/c2ccc(Cl)cc2)CN(C(=O)CCN2CCC(=NO)CC2)C/C1=C\c1ccc(Cl)cc1`, for which the GI50 is 0.93 µM in [1]; 0.637 µM in assay [2]; 0.397 µM in [3]; 0.888 µM in [4]; 1.5 µM in [5]; 0.481 µM in [6]. For the same compound, the GI50 in assay [7] was 1.65 µM; in assay [8], 0.179 µM; in [9], 1.46 µM; in assay [10], 1.27 µM. Moreover, the TGI came out at 3.75 µM in assay [1]; 1.68 µM in assay [2]; 2.73 µM in assay [4]; 3.12 µM in assay [5]; 1.57 µM in assay [6]; 3.77 µM in assay [7]. The figures for the TGI in assay [8], in assay [9] and in [10] were 0.467 µM, 2.86 µM and 6.43 µM, respectively.

On to `Cc1ccc(-c2cc(-c3ccc(C)cc3)nc(N3CCN(CCNc4ccnc5cc(Cl)ccc45)CC3)n2)cc1`, for which the GI50 in assay [1] was 2.53 µM; in assay [2], 4.71 µM; in assay [3] it was 6.25 µM; in assay [4], 2.21 µM; in assay [5], 1.07 µM; in [6], 3.14 µM. Besides, the GI50 in assay [7] is 3.62 µM; in assay [8] it was 1.82 µM; in [9], 5.27 µM; in assay [10], 1.41 µM. Further, the TGI was 11.1 µM in [1]; 14.7 µM in [2]; more than 50 µM in assay [3]; 9.2 µM in [4]; 2.28 µM in assay [5]; 30.9 µM in assay [6]. Besides, the TGI in [7] is 13.3 µM; in assay [8] it was 6.32 µM; in assay [9], 15.4 µM; in [10], 4.56 µM.

In the case of `O=C(c1ccco1)c1nc2cc(C(F)(F)F)ccc2[n+]([O-])c1C(F)(F)F`, the GI50 in assay [1] was 32.4 µM; in assay [2], 65.1 µM; in assay [3], 90.3 µM; in assay [4], 61 µM; in [5] it was 33 µM; in assay [6], 43.3 µM. The GI50 was more than 100 µM in assay [7], 37.5 µM in assay [8], 51.3 µM in assay [9] and 51.9 µM in assay [10]. The TGI in [1], in assay [2], in assay [3], in assay [4], in assay [5] and in [6] was more than 100 µM throughout. Besides, the TGI in assay [7], in [8], in [9] and in [10] was more than 100 µM in each case.

On to `CC[C@H]1CN(C)[C@H]2Cc3c([nH]c4ccccc34)C(=O)C[C@H]1C2C(=O)OC` (some centres undefined), for which the TGI in assay [1], in assay [2], in assay [3], in assay [4], in assay [5] and in assay [6] was more than 100 µM throughout. For the same compound, the TGI in [7], in [8], in [9] and in [10] was more than 100 µM in each case.

For the compound `CCCCCCCCCCC[C@@H](C[C@H]1OC(=O)[C@H]1CCCCCC)OC(=O)[C@@H](CC(C)C)NC=O`, the GI50 in [1] is 2.86 µM; in assay [2], 2.42 µM; in assay [3] it was 0.704 µM; in [4], 3.63 µM; in assay [5] it was 15.9 µM; in [6], 2.78 µM. Besides, the GI50 is 13.1 µM in [7], 4.92 µM in assay [8], 2.08 µM in assay [9] and 3.81 µM in [10]. In addition, the TGI in [1] is 15.2 µM; in assay [2], 12.2 µM; in [3], more than 100 µM; in [4] it was 21.1 µM; in [5], 41.7 µM; in assay [6] it was 22.8 µM. For the same compound, the TGI in assay [7] was more than 100 µM; in [8], 94.1 µM; in assay [9], 10.6 µM; in [10], 40.8 µM.

Take `COc1ccc2c(c1)[nH]c(=O)c1c3cc(OC)c(OC)cc3cn21`: the GI50 in assay [1] is less than 0.01 µM; in [2], 0.0124 µM; in assay [3], less than 0.0159 µM; in assay [4] it was less than 0.01 µM; in [5] it was 16.6 µM; in assay [6] it was less than 0.01 µM. Moreover, the GI50 in assay [7], in [8], in assay [9] and in assay [10] was less than 0.01 µM in each case. In addition, the TGI is less than 0.0133 µM in assay [1]; 15.2 µM in [2]; 1.16 µM in assay [3]; 1.04 µM in assay [4]; 44.1 µM in assay [5]; 1.6 µM in assay [6]. Besides, the TGI in [7] is 1.41 µM; in assay [8], 1.52 µM; in assay [9] it was 0.409 µM; in [10], less than 0.0231 µM.

As for `Cc1ccc2nc3c(n2c1)C(=O)C(=O)c1ccccc1-3`, the GI50 in assay [1] is 0.348 µM; in [2], 0.153 µM; in assay [3], 0.434 µM; in [4] it was 0.173 µM; in [5], 0.157 µM; in [6] it was 0.59 µM. Besides, the GI50 was 0.199 µM in assay [7], 0.198 µM in [8], 0.287 µM in assay [9] and 0.213 µM in [10]. Moreover, the TGI in assay [1] turned out to be 2.51 µM; in assay [2], 0.303 µM; in [3] it was 1.79 µM; in assay [4] it was 0.718 µM; in assay [5], 0.32 µM; in [6], 3.81 µM. Besides, the TGI was found to be 0.62 µM in assay [7], 0.411 µM in assay [8], 0.937 µM in assay [9] and 0.618 µM in assay [10].
